{
  "source": "patent US20220160658A1",
  "about": "“TESOFENSINE FOR REDUCTION OF BODY WEIGHT IN PRADER-WILLI PATIENTS” (Saniona A/S, priority 2019, published 2022)",
  "key": {"[1]": {"settings": "in vivo; cited from earlier work"}, "[2]": {"test": "Phase 2a trial in adult PWS patients: tesofensine plasma concentration", "assay_type": "in vivo, human", "settings": "for Mean trough plasma concentration of tesofensine: TM002 study, 0.50 mg tesofensine + 50 mg metoprolol daily", "procedure": "This exploratory Phase 2a trial comprised in of a total of nine adult patients with Prader-Willi syndrome (PWS) of which six patients received co-administration of tesofensine (0.50 mg)/metoprolol (50 mg) (A, active treatment—Tesomet) and three patients received placebo (P). The initial plan was to complete 10-20 adult subjects with PWS. However, ultimately nine patients were randomized as more subjects were not available at the two participating sites.\nThe main objective of this study was to examine the effect of co-administration of tesofensine/metoprolol on body weight in subjects with PWS. Further objectives were: • To establish a pharmacokinetic profile of tesofensine and metoprolol in subjects with PWS. • To examine the effect of co-administration of tesofensine/metoprolol on glycaemic control and lipid profile in subjects with PWS • To examine the effect of co-administration of tesofensine/metoprolol on HR and BP in subjects with PWS • To examine the effects of co-administration of tesofensine/metoprolol on body composition in subjects with PWS • To evaluate overall safety and tolerability of co-administration of the tesofensine/metoprolol in subjects with PWS\nArm 1) tesofensine 0.50 mg+metoprolol 50 mg administered once a day, in the morning with a meal\nThe study included two arms: Tesomet 0.5/50 (combination of 0.50 mg tesofensine and 50 mg of metoprolol ER) or placebo tablets matching tesofensine+metoprolol succinate, each administered once daily in the morning with a meal.\nThe primary endpoint was change in body weight following 91 days of treatment with either tesofensine+metoprolol or placebo. Patients were weighed throughout the study period to track changes in body weight. Secondary endpoints included change in hyperphagia-related behavior, pharmacokinetic profile, effects of co-administration of tesofensine/metoprolol on HR, BP, glycemic control, lipid profile and body composition, and safety and tolerability."}, "[3]": {"test": "Phase 2a trial in adolescent PWS patients: body weight and BMI, random coefficients analysis", "assay_type": "in vivo, human", "procedure": "Arm 1) tesofensine 0.125 mg+metoprolol 25 mg administered once a day, in the morning with a meal-first, an initial titration dose of tesofensine 0.0625 mg+metoprolol 25 mg will be given for the first 4 weeks, in the morning with a meal. Following a favorable review of all safety data for each subject by the investigator, tesofensine 0.125 mg+metoprolol 25 mg will be given for the final 9 weeks (the above proposed dosing plan can be adjusted by the DSMB, if needed)\n(§1) This study included a double blind (DB) part (3 months) and two Open Label Extensions (OLE), each 3 months. Adolescents (12 to 17 years of age) received: tesofensine 0.125 mg daily (0.25 mg every second day)+metoprolol succinate 25 mg. Example 4 relates to Example 2.\n(§2) The initial double blind (DB) phase of this study utilized a dose of tesofensine of 0.125 mg daily. In the first 3-month Open Label Extension (OLE1), a dose of 0.125 mg tesofensine was maintained. In the second OLE (OLE2), the tesofensine dose, if judged safe by the principle investigator (PI), was increased to 0.25 mg daily.\nIn the random coefficients analysis, each subject was considered as having their own profile of data, i.e. their own set of weight change/hyperphagia values and corresponding pk values. The analysis was essentially conducted by fitting a regression line to each subject individually:\nwhere j denotes subjects, j=1 to m, and i denotes the measurement with subject j, i=1 to nj. The slope βj and intercept αj estimate for each subject j=1 to m, along with their standard errors, were then obtained. In a final step, the βj and αj values were averaged across the m subjects to give the overall mean regression slope and mean intercept, βj and αj, which gives the correlation line, as well as the associated confidence interval."}, "[4]": {"test": "Phase 2a trial in adolescent PWS patients: hyperphagia score", "assay_type": "in vivo, human", "procedure": "as §1, §2"}, "[5]": {"test": "Phase 2a trial in adolescent PWS patients: tesofensine plasma levels", "assay_type": "in vivo, human", "settings": "for concentration at 3 months: human, plasma, oral", "procedure": "as §1, §2"}, "[6]": {"settings": "cited from earlier work"}, "[7]": {"test_system": "rat model of diet-induced obesity (DIO)", "settings": "DIO rats; cited from earlier work"}, "[8]": {"settings": "cited from earlier work", "remark": "listed apart in the source"}, "[9]": {"settings": "0.125 mg tesofensine daily (DB, OLE1)"}},
  "note": "Where “and” joins values, the source holds several entries; their conditions need not be identical. Identical values can stand only once.",
  "data": [
    {"smiles": "COCCc1ccc(OCC(O)CNC(C)C)cc1", "note": "(stereo not drawn) [Metoprolol, 1-(Isopropylamino)-3-[4-(2-methoxyethyl)-phenoxy]-propan-2-ol, reference compound]", "values": [
      {"measurement": "half-life", "setting": "[1]", "value": "3 to 4", "unit": "h"}
    ]},
    {"smiles": "CCOC[C@@H]1[C@@H](c2ccc(Cl)c(Cl)c2)C[C@@H]2CC[C@H]1N2C", "note": "[Tesofensine, (1R,2R,3S,5S)-3-(3,4-dichlorophenyl)-2-(ethoxymethyl)-8-methyl-8-azabicyclo[3.2.1]octane]", "values": [
      {"measurement": "Mean trough plasma concentration of tesofensine", "setting": "[2]; V5 (day 28), n = 6", "value": "18 ± 9", "unit": "ng/mL"},
      {"measurement": "Mean trough plasma concentration of tesofensine", "setting": "[2]; V9 (day 56), n = 5", "value": "21 ± 8", "unit": "ng/mL"},
      {"measurement": "Mean trough plasma concentration of tesofensine", "setting": "[2]; V14 (day 91), n = 2", "value": "23 ± 1", "unit": "ng/mL"},
      {"measurement": "plasma levels of tesofensine", "setting": "[2]; adult PWS, 0.50 mg tesofensine and 50 mg metoprolol", "value": "20 to 40", "unit": "ng/mL"},
      {"measurement": "plasma concentration in individual patients", "setting": "[2]; adult PWS, 0.5 mg tesofensine, two patients", "value": "34.1 ng/mL and 34.2 ng/mL"},
      {"measurement": "mean trough plasma concentration", "setting": "[2]; adult PWS, dosing of 0.5 mg tesofensine, whole study", "value": "~20", "unit": "ng/mL"},
      {"measurement": "weight change compared to placebo", "setting": "[3]; adolescent PWS, DB phase, 0.125 mg tesofensine dose", "value": "No difference compared to placebo"},
      {"measurement": "decrease in weight", "setting": "[3]; adolescent PWS, at 10 ng/mL tesofensine plasma level, from the correlation analysis", "value": "around 2%"},
      {"measurement": "tesofensine plasma level that counteracts the baseline weight gain of around 3%", "setting": "[3]; adolescent PWS, random coefficients analysis", "value": "around 6 ng/mL"},
      {"measurement": "Slope (SE), monthly BMI change versus tesofensine plasma level", "setting": "[3]; random coefficients analysis, N=8, p=0.0031", "value": "−0.478 (0.1081)"},
      {"measurement": "Slope (SE), monthly body weight change versus tesofensine plasma level", "setting": "[3]; random coefficients analysis, N=8, p=0.0046", "value": "−0.460 (0.1120)"},
      {"measurement": "hyperphagia scores compared to placebo", "setting": "[4]; DB part and OLE1, 0.125 mg tesofensine daily", "value": "did not differ from placebo"},
      {"measurement": "hyperphagia compared to placebo", "setting": "[4]; DB phase, 0.125 mg tesofensine dose", "value": "No difference compared to placebo"},
      {"measurement": "hyperphagia scores", "setting": "[4]; OLE2, 0.25 mg tesofensine", "value": "dropped to single digit numerical values"},
      {"measurement": "plasma levels of tesofensine", "setting": "[5]; [9]", "value": "3 to 5", "unit": "ng/mL"},
      {"measurement": "concentration at 3 months", "setting": "[5]; [9]", "value": "3 to 5", "unit": "ng/mL"},
      {"measurement": "concentration at 3 months", "setting": "[5]; 0.25 mg tesofensine daily (OLE2)", "value": "7 to 9", "unit": "ng/mL"},
      {"measurement": "waist circumference and sagittal diameter", "setting": "[6]; Astrup et al., 2008", "value": "significantly decreases"},
      {"measurement": "weight loss", "setting": "[6]; obese patients, long-term treatment, corrected for placebo and diet effects", "value": "about 10%"},
      {"measurement": "body weight", "setting": "[7]", "value": "robust and sustained weight loss"},
      {"measurement": "serum half-life", "setting": "[1]", "value": "nine"},
      {"measurement": "average tesofensine trough plasma concentration", "setting": "[8]; TIPO-1, dose of 0.5 mg Tesofensine", "value": 10, "unit": "ng/mL"},
      {"measurement": "efficacious target plasma levels", "setting": "[8]; previous studies in obese individuals at the same dosages", "value": "~10 ng/mL and around 10 ng/mL"}
    ]}
  ]
}
